Data set [1] can be described thus: orientative acute toxicity (LD50) in mice. The conditions noted are these: mouse, in vivo, single oral administration, assessed on seventh day. As to the method:
The toxicity of the compounds of the invention is negligible. Nine hours food deprived mice were treated orally with single administration of increasing doses, then housed and normally fed. The orientative acute toxicity (LD50) was assessed on the seventh day after the treatment and, for example, the following data were obtained: […]

The next data set concerns restraint ulcers. Description: inhibition of restraint ulcers in rats (anti-ulcerogenic activity). It is filed as in vivo, rat (Sprague-Dawley male). Conditions: po, 4 h; rat, p.o., approximate ED50; read-out: Antiulcerogenic activity ED50 p.o. The source says:
The compounds of the invention are also useful for reducing the undesirable gastrointestinal side-effects resulting from systemic administration of anti-inflammatory prostaglandin synthetase inhibitors and may be, therefore, used for this purpose in association with them. The anti-ulcerogenic activity of the compounds of the invention is shown, e.g., by the fact that they are active in the test of the inhibition of restraint ulcers in rats, according to the method of Bonfils et al., (Therapie, 1960, 5, 1096; Jap. J. Pharmac. 1945, 43, 5).
According to this method, the tested compounds were administered per os (p.o.) one hour before the immobilization. Six Sprague-Dawley male rats (100-120 g) fasted 24 hours were used for the experiment: a square flexible small-mesh wire netting was used for the immobilization and 4 hours after the immobilization the rats were sacrificed, their stomachs were removed and the lesions counted under a dissecting microscope.

In the next data set the test system is gastric secretion. Description: inhibition of gastric secretion in pylorus-ligated rats (antisecretory activity, method of Shay). It is filed as in vivo, rat (Sprague-Dawley male). Conditions: 4 h; rat, intraduodenal, approximate ED50; read-out: Antisecretory activity ED50 i.d. As to the method:
According to this method the tested compounds were injected intraduodenally (i.d.) at the time of ligature.
Six Sprague-Dawley male rats (110-130 g) were used for each group. Twenty-four hours before the test, the rats were deprived of food but the water supply was maintained. On the day of the operation, the pylorus was ligated under light ether anaesthesia. Four hours after the ligature, the rats were sacrificed. The stomach secretion was collected and centrifugated at 3500 r.p.m. for 10 minutes and the volume, less sediment, was determined.
The amount of free hydrochloric acid in the gastric juice was determined by titration against 0.01N sodium hydroxide, to an end point of pH 7.

Data set [2] concerns syndrome induced by oxotremorine. Description: antagonism against syndrome induced by oxotremorine in mice (anti-cholinergic activity). It is filed as in vivo, mice (male). Conditions: Mus musculus, po, approximate ED50, read-out: Anticholinergic activity ED50 p.o. As to the method:
Considering that many anti-ulcer agents display, as does atropine, a remarkable but undesired anti-cholinergic activity, the compounds of the invention were also assessed for their antagonism against syndrome induced by oxotremorine in mice, according to the method described by Leszkovszky G. P. and Tardos L. (Europ. J. Pharmac. 1971, 15, 310). According to this method 5 male mice, 20-25 g body weight, were used for each group.

Data set [3] concerns antibody response against sheep red blood cells (SRBC). Description: antibody response induced in mice by suboptimal dose of sheep red blood cells (immunomodulating activity). Conditions: i.p., 50 and 5 mg/kg two hours before antigen, vs control group, six days later. It is filed as in vivo, mice (female CD-1). As to the method: Their immunomodulating activity is, for example, proven by their capacity to modify the antibody response induced in mice by a suboptimal dose of sheep red blood cells (SRBC) injected by intraperitoneal route (i.p.).
Groups of ten female CD-1 mice were injected i.p. with 2×10^6 SRBC as antigen. The tested compounds were administered i.p. at two dosage levels: 50 and 5 mg/kg body weight, two hours before the administration of the antigen. A control group of mice received SRBC and saline instead of the compounds. Six days later the mice were killed and antibody titres against SRBC determined in their sera, according to Williams C. A.: Methods in Immunology and Immunochemistry, C. A. Williams and M. W. Chase, Eds. Academic Press, New York, Vol. II, page 152, 1977.

Data set [4] deals with influenza virus strain APR 8. Description: influenza virus experimental infection in mice. The conditions noted are these: single dose one or two days after the infection. It is filed as in vivo, CD-1 mice. The method, then:
(§1) The antiviral activity of the compound of the invention was, for example, evaluated on influenza and herpes simplex viruses experimental infections in mice.
(§2) Groups of CD-1 mice were infected intranasally with the strain APR 8 of influenza virus and other groups were infected intraperitoneally with the strain 1RC of herpes simplex virus. The tested compounds were administered through various routes, e.g. intraperitoneally, subcutaneously, orally.
(§3) The effect of the tested compounds, against the influenza virus, was evaluated on the basis of the number of lung lesions and, against the herpes infection, the parameter considered was the protection from mortality since, as is known, herpes simplex infection is lethal in mice.

Data set [5] relates to herpes simplex virus strain 1RC. Description: herpes simplex virus experimental infection in mice. The format is in vivo, CD-1 mice. The conditions noted are these: single dose one or two days after the infection. The method, then: as §1, §2, §3
Data set [6] is described as follows: lipid-lowering activity in rats fed hypercholesterolaemic diet (Experiment 1). It is filed as in vivo, rat (Icem:CER (SPF Caw) male). The method, then:
(§4) The activity of the compounds of the invention was evaluated: (1) on groups of Icem:CER (SPF Caw) male rats, fed for six days with hypercholesterolaemic diet according to C. E. Day: Shur P. E., Shultz H. R., Day C. E. (Ed.) Atherosclerosis and drug discovery Plenum Pub. Corp., 217 (1976): Experiment 1; or (2) or groups of Iva-SIV (SPF) male rats fed standard MS/K Altromin® diet: Experiment 2. MS/K Altromin is a trade mark.
(§5) The tested compounds were suspended in Methocel (methyl-cellulose, a 0.5% solution in water) and administered by stomach tube at the dose of 50 mg/kg for 4 days in both the experiments.
(§6) Groups of animals were treated with the suspending agent only (control groups).
(§7) The total serum cholesterol was determined with the method of Allain, Clin. Chem., 1974, 20, 470.
(§8) The total serum HDL cholesterol was determined according to Demacker P. N. H., Clin. Chem., 1977, 23, 1238.
(§9) The total β-lipoprotein cholesterol was determined by difference between total serum cholesterol and HDL cholesterol. Statistical analysis in experiment 1 and 2 was performed by the Student's t test for independent samples or by the Cochran's test when the variances were not homogeneous at the F ratio test [Bliss C. I., Statistics in Biology, Vol. 1, page 213 McGraw Hill Book Company, New York 1967; Cochran W. G., Cox C. H., Experimental designs-J. Willey and Sons Inc., New York, II Ed. (1968), page 100].

Data set [7] in a line: lipid-lowering activity in rats fed standard MS/K Altromin diet (Experiment 2). It is filed as in vivo, rat (Iva-SIV (SPF) male). The method, then: as §4, §5, §6, §7
The serum triglycerides were determined with the method of Mendez, J. Clin. Chem., 1975, 21, 768.
as §8, §9

Where [8] appears, read: Experiment 2, 50 mg/kg/os, vs control.

Usually LD50 stands for the dose at which mortality reaches 50%. In general, ED50 refers to the midpoint of the dose-response relation.

`N#CC1Oc2ccccc2-c2ccccc21` (centres unmarked) [FCE 20493, 6H,6-cyano-dibenzo[b,d]pyran] had an LD50 at 168 h in data set [1] of 400 to 800 mg/kg.
On the same count and under the same terms, as for `N#CC1(CO)Oc2ccccc2-c2ccccc21` (centres unmarked) [FCE 20518, 6H,6-cyano-6-hydroxymethyl-dibenzo[b,d]pyran], the figure is above 800 mg/kg.
`CC1(C#N)Oc2ccccc2-c2ccccc21` (centres unmarked) [FCE 20519, 6H,6-cyano-6-methyl-dibenzo[b,d]pyran] showed an LD50 at 168 h in data set [1] above 800 mg/kg.
Same read-out and setting: as for `CCOC(=O)C1Oc2ccccc2-c2ccccc21` (centres unmarked) [FCE 20521, 6H,6-ethoxycarbonyl-dibenzo[b,d]pyran], the figure is above 800 mg/kg.
`NCC1Oc2ccccc2-c2ccccc21` (centres unmarked) [FCE 20524, 6H,6-aminomethyl-dibenzo[b,d]pyran]: the median effective dose (ED50) is 4.8 mg/kg in the data set with restraint ulcers, 6 mg/kg with gastric secretion and above 100 mg/kg in data set [2]. Besides, in data set [1], the LD50 at 168 h fell in the range of 400 to 800 mg/kg.
In data set [1], `O=C(O)C1(CO)Oc2ccccc2-c2ccccc21` (centres unmarked) [FCE 20561, 6H,6-carboxy-6-hydroxymethyl-dibenzo[b,d]pyran] showed a 50% lethal dose (LD50) at 168 h above 800 mg/kg.
In data set [1], `CC1(C(=O)O)Oc2ccccc2-c2ccccc21` (centres unmarked) [FCE 20562, 6H,6-carboxy-6-methyl-dibenzo[b,d]pyran] showed a 50% lethal dose (LD50) at 168 h of 400 to 800 mg/kg.
Consider `c1ccc2c(c1)OC(N1CCNCC1)c1ccccc1-2` (centres unmarked) [FCE 20618, 6H,6-(1-piperazinyl)-dibenzo[b,d]pyran], for which the results for the ED50 (in the data set on restraint ulcers; with gastric secretion; in data set [2]) were 7 mg/kg, 1.5 mg/kg and above 100 mg/kg, respectively. In data set [1], the LD50 at 168 h fell in the range of 400 to 800 mg/kg.
Regarding `CN(C)CCOC(=O)C1Oc2ccccc2-c2ccccc21` (centres unmarked) [FCE 20696, 6H,6-(2-dimethylaminoethoxycarbonyl)-dibenzo[b,d]pyran], in [3], the “antibody titres against SRBC” value was “increased the antibody titers several fold as compared to control group”. The “number of lung lesions” value in [4] is recorded as “reducing substantially the number of lung lesions”. In [5], the “protection from mortality (animals protected from death)” value is on record as “up to 45%”. The compound also showed an LD50 at 168 h in data set [1] of 400 to 800 mg/kg.
Take `CC1(C(=O)O)Oc2ccc(Cl)cc2-c2ccccc21` (centres unmarked) [FCE 20770, 6H,6-carboxy-6-methyl-2-chloro-dibenzo[b,d]pyran]: the LD50 at 168 h in data set [1] was 400 to 800 mg/kg.
For `O=C(O)CC1Oc2ccccc2-c2ccccc21` (centres unmarked) [FCE 20881, 6H,6-carboxymethyl-dibenzo[b,d]pyran], the “Serum HDL total cholesterol, mean ± S.E.” value in [6] (Experiment 1, 50 mg/kg/os for 4 days, hypercholesterolaemic diet, control 13.2 ± 1.8) is reported as 23.2 ± 0.5 mg/100 ml. In addition, in data set [6] (Experiment 1, 50 mg/kg/os for 4 days, hypercholesterolaemic diet, control 459.6 ± 51.7), the “Total serum cholesterol, mean ± S.E.” value was determined as 240.0 ± 20.7 mg/100 ml. Also, the “effect on total serum cholesterol and total HDL cholesterol” value in data set [6] (Experiment 1, in words) is “decrease the total serum cholesterol and to increase the total HDL cholesterol”. For the same compound, the “β-lipoprotein cholesterol, mean ± S.E.” value in [7] (Experiment 2, 50 mg/kg/os for 4 days, standard diet, control 27.1 ± 1.1) was 20.5 ± 0.8 mg/100 ml. Moreover, the “Total serum cholesterol, mean ± S.E.” value in data set [7] (Experiment 2, 50 mg/kg/os for 4 days, standard diet, control 66.3 ± 1.7) is reported as 57.7 ± 1.5 mg/100 ml. The “Serum triglycerides (printed "trygylcerides"), mean ± S.E.” value in data set [7] (Experiment 2, 50 mg/kg/os for 4 days, standard diet, control 228.7 ± 18.9) is recorded as 168.3 ± 13.4 mg/100 ml. Also, in data set [7] (setting [8]), the “Serum triglycerides, Student's t test result” value is on record as “S (significant (p <0.05))”; the “Total serum cholesterol, Student's t test result” value was “HS (highly significant (p <0.01))”; the “β-lipoprotein cholesterol, Student's t test result” value is given as “HS (highly significant (p <0.01))”. In addition, the “effect on total serum cholesterol, β-lipoprotein cholesterol and serum triglycerides” value in data set [7] (Experiment 2, in words) is “decrease the total serum cholesterol, in particular β-lipoprotein cholesterol and serum triglycerides”. In addition, in data set [1], the LD50 at 168 h lay in the range of 400 to 800 mg/kg.
`CCN(CC)CCOC(=O)C1Oc2ccccc2-c2ccccc21` (centres unmarked) [FCE 21849, 6H,6-(2-diethylaminoethoxycarbonyl)-dibenzo[b,d]pyran]: the “antibody titres against SRBC” value in [3] is recorded as “increased the antibody titers several fold as compared to control group”. Moreover, the LD50 at 168 h in [1] was 400 to 800 mg/kg.
